Measurements reported in article PMC12677699, “Utilizing Proteolytic‐Resistant Nano‐Short Peptide Based on Naphthyl Tail‐Anchored to Combat Bacterial Infections” (Advanced Science, 2025).

What was measured:
S. aureus ATCC 29213 = assay: Drug resistance assay, 30 serial passages; format: cell-based, Staphylococcus aureus; details: S. aureus ATCC 29213, 30 successive passages at sub-MIC concentrations; gentamicin by day 17
Method: The potential resistance development of nano‐short peptides was evaluated through 30 serial passages of E. coli ATCC 25922 and S. aureus ATCC 29213 in sub‐MIC conditions,^[ [38] ^] using gentamicin as control.

ThT fluorescence assay = format: physicochemical; details: 16 × 10^−6 M N4, ThT 40 × 10^−6 M, deionized water, 20 min, 37 °C
Method: The fluorescent dye was used for fluorescence measurements and imaging of N4. ^[ [48] ^] […] An equal volume of ThT solution was added to each well (final concentration: 40 × 10^−6 M), with ThT in deionized water serving as the control. After 20 min incubation at 37 °C, fluorescence intensity was measured using a microplate reader (excitation λ = 450 nm, emission λ = 480 nm). N4 was stained with 40 × 10^−6 M ThT for 30 min and observed by imaging using a fluorescence microscope.

E. coli ATCC 25922 = assay: Live/dead staining, PI and SYTO 9; format: cell-based, Escherichia coli
Excerpt: Finally, a fluorescence microscope (EVOS FL Auto, Massachusetts, USA) was used to observe the fluorescence images of the bacteria under different background colors and representative pictures were taken.

ICR female mice = assay: In vivo toxicity of N4; set-up: species or system mouse
Method: Animal experiments were conducted in accordance with the Guide for the Care and Use of Laboratory Animals at Northeast Agricultural University (NEAU‐[2011]‐9). The experimental subjects comprised female ICR mice, aged 6 to 8 weeks and weighing 19 ± 1.1 g, sourced from Liaoning Changsheng Biotechnology Co. Thirty‐two mice were randomly divided into four groups after a 3‐day pre‐feeding period, followed by intraperitoneal injections of N4 at different doses (5, 10, and 20 mg kg^−1) to assess its toxicity, with saline treatment serving as the control group. Following injection, behavioral alterations were observed over a brief duration (0.5, 1, 4, and 8 h), and then body weight changes were monitored for 3 days. On the third day, the mice were euthanized via ether inhalation anesthesia, and blood samples were collected from the orbital vein for biochemical analysis, which was used to determine the levels of ALT, ALP, BUN, CREA, and TBIL. Subsequently, the liver, spleen, and kidneys were taken to determine organ coefficients. The relative organ weights were calculated using the formula: relative organ weight (%) = (organ weight/mouse body weight) × 100%. These organs were then fixed in 4% paraformaldehyde, following established protocols, for subsequent histological examination.^[ [70] ^]

in vitro = details: female, ICR, mouse, serum
Method: N4 was incubated with serum isolated from mice for different durations (0, 1, 2, 4, 8, 12 h), followed by RP‐HPLC analyses to determine the retention rate.^[ [48] ^]

MRSA = assay: MRSA-mediated skin infection model; format: in vivo, mouse; set-up: bacterial load in skin tissue, Day 5 / bacterial load in skin tissue, Day 9: dose or concentration left out as unconfirmed; details: MRSA wound, n = 8
Excerpt: The mouse skin infection model was based on previous research with some modifications.^[ [62] ^] The mice utilized in the […] were consistent with those employed in the in vivo toxicity assessment. Forty‐eight mice were randomly divided into three groups after a 3‐day pre‐feeding period, including control, N4‐treated and MRSA‐infected groups. Initially, the dorsal regions of the mice were depilated (Day ‐1). On the following day (Day 0), circular incisions were made on the dorsal surfaces, and 10 µL of saline‐diluted MRSA suspension (OD600 = 0.2) was applied to the wounds of the mice in N4‐treated and MRSA‐infected groups, while an equivalent volume of saline was administered to the wounds in the control mice. […] The above treatments were repeated after […] (Day 3). Throughout the experimental period, representative images of the wounds were captured.
Mice were euthanized on Days 5 and 9 post‐infection, and skin tissue homogenates were quantified for bacterial load. Subsequently, the supernatants of skin tissue homogenates from mice on Day 9 were selected for the detection of inflammatory factors, and wound tissues were collected for histological, Masson and immunofluorescence analyses.

[1] = 5, 10, 20 mg kg^−1 intraperitoneal, day 3, p > 0.05, n = 8
[2] = Day 9, vs infected group, p < 0.05

N=C(N)NCCC[C@H](NC(=O)[C@@H](CCCNC(=N)N)NC(=O)[C@H](Cc1cccc2ccccc12)NC(=O)[C@H](Cc1cccc2ccccc12)NC(=O)[C@H](Cc1cccc2ccccc12)NC(=O)[C@@H](N)Cc1cccc2ccccc12)C(=O)N[C@@H](CCCNC(=N)N)C(=O)N1CCC[C@H]1C(=O)O (stereo in doubt) [Peptide N4]
increase in MIC values after serial passage (S. aureus ATCC 29213): remained largely unchanged | ThT fluorescence intensity (ThT fluorescence assay): significant increase | red (PI)/green (SYTO 9) fluorescence overlap rate (E. coli ATCC 25922; 16 × 10^−6 M N4, E. coli ATCC 25922, ImageJ): 79.11% | red (PI)/green (SYTO 9) fluorescence overlap rate (E. coli ATCC 25922; 256 × 10^−6 M N4, E. coli ATCC 25922, ImageJ): 99.29% | clinical signs (ICR female mice; 20 mg kg^−1 intraperitoneal, ICR female mice, only two mice, within 1 h, n = 8): mild and transient symptoms | body weight vs control group (ICR female mice; 5, 10, 20 mg kg^−1 intraperitoneal, 3 days, p > 0.05, n = 8): no significant differences | histopathology of liver, spleen, kidney (H&E) (ICR female mice; 5, 10, 20 mg kg^−1 intraperitoneal, day 3): did not inflict histopathological damage | levels of ALT, ALP, BUN, CREA and TBIL vs control group (ICR female mice; [1]): no significant differences | relative weights of the liver, spleen, and kidney (ICR female mice; [1]): remained comparable | remaining at 4 h (in vitro): > 50% | remaining at 12 h (in vitro): 8.1% | bacterial load in skin tissue, Day 9 (MRSA; 10 µL of N4, twice a day on Day 1 and Day 3, topical, infected group 6.89): 6.12 log10 CFU g^−1 | bacterial load in skin tissue, Day 5 (MRSA; 10 µL of N4, twice a day on Day 1 and Day 3, topical, infected group 7.1): 6.59 log10 CFU g^−1 | anti-inflammatory cytokine IL-10 in supernatant of skin tissues (MRSA; [2]): significant increase | pro-inflammatory cytokines (IL-1β, IL-6, TNF-α) in supernatant of skin tissues (MRSA; [2]): significant decrease
